Laboratory results reported in article PMC7093416, “Selective USP7 inhibition elicits cancer cell killing through a p53-dependent mechanism” (Scientific Reports, 2020).

System: panel of 484 cancer cell lines
Assay: PRISM cancer cell line profiling, 5 days
Assay type: cell-based
Design: AUC: unit not given beside the values
Protocol: Cancer cell line profiling was performed using the Broad’s PRISM platform. Cell treatment and data analysis were performed as described in Yu et al[42]. Raw Luminex signal was converted to AUC values for each cell line as described. The resulting AUC profile for each compound was modeled against DepMap using the limma package in R[71]. Because hotspot mutation analysis was performed against DepMap, TP53 annotations in Fig. 6c,d are directly from DepMap.

CN1CCN(CCC(=O)Nc2ccc3c(=O)n(CC4(O)CCN(C(=O)[C@H](CCCNC(=O)c5ccc6c(Cl)c7c(nc6c5)CCCC7)Cc5ccccc5)CC4)cnc3c2)CC1 [XL177B]
AUC (HCC1438_LUNG): 0.9398
AUC (HCC1588_LUNG): 1.124
AUC (HCC1806_BREAST): 1.262
AUC (HCC1937_BREAST): 0.9651
AUC (HCC4006_LUNG): 1.102
AUC (HCT15_LARGE_INTESTINE): 1.193
AUC (HCT116_LARGE_INTESTINE): 1.02
AUC (HDQP1_BREAST): 0.9999
AUC (HEC1A_ENDOMETRIUM): 1.104
AUC (HEC1B_ENDOMETRIUM): 1.096
AUC (HEC6_ENDOMETRIUM): 1.02
AUC (HEC59_ENDOMETRIUM): 1.13
AUC (HEC108_ENDOMETRIUM): 0.935
AUC (HEC151_ENDOMETRIUM): 0.9419
AUC (HEC251_ENDOMETRIUM): 0.8279
AUC (HEC265_ENDOMETRIUM): 0.8825
AUC (HEP3B217_LIVER): 1.23
AUC (HEYA8_OVARY): 1.2
AUC (HGC27_STOMACH): 1.226
AUC (HLF_LIVER): 0.794
AUC (HMC18_BREAST): 1.228
AUC (HOS_BONE): 1.145
AUC (HPAC_PANCREAS): 1.288
AUC (HS294T_SKIN): 1.038
AUC (HS618T_LUNG): 1.097
AUC (HS729_SOFT_TISSUE): 1.1211
AUC (HS766T_PANCREAS): 1.2108
AUC (HS852T_SKIN): 1.089
AUC (HS939T_SKIN): 1.116
AUC (HS944T_SKIN): 1.026
AUC (HSC2_UPPER_AERODIGESTIVE_TRACT): 1.102
AUC (HSC3_UPPER_AERODIGESTIVE_TRACT): 1.094
AUC (HT29_LARGE_INTESTINE): 1.23
AUC (HT55_LARGE_INTESTINE): 1.212
AUC (HT144_SKIN): 1.106
AUC (HT1080_SOFT_TISSUE): 0.9733
AUC (HT1376_URINARY_TRACT): 0.9173
AUC (HUCCT1_BILIARY_TRACT): 1.078
AUC (HUH6_LIVER): 0.9719
AUC (HUH7_LIVER): 1.132
AUC (HUH28_BILIARY_TRACT): 1.093
AUC (HUPT3_PANCREAS): 1.102
AUC (IALM_LUNG): 1.165
AUC (IGR1_SKIN): 1.13
AUC (IGR37_SKIN): 1.06
AUC (IGROV1_OVARY): 0.9036
AUC (IM95_STOMACH): 0.9524
AUC (IPC298_SKIN): 1.071
AUC (ISHIKAWAHERAKLIO02ER_ENDOMETRIUM): 1.087
AUC (ISTMES1_PLEURA): 0.902
AUC (ISTMES2_PLEURA): 1.138
AUC (J82_URINARY_TRACT): 1.062
AUC (JHH1_LIVER): 0.9889
AUC (JHH4_LIVER): 0.8541
AUC (JHH5_LIVER): 1.201
AUC (JHH6_LIVER): 1.182
AUC (JHH7_LIVER): 1.125
AUC (JHOC5_OVARY): 1.064
AUC (JHOM1_OVARY): 1.08
AUC (JHOS2_OVARY): 1.281
AUC (JHUEM2_ENDOMETRIUM): 0.8483
AUC (JIMT1_BREAST): 0.9922
AUC (JMSU1_URINARY_TRACT): 1.004
AUC (K029AX_SKIN): 1.1273
AUC (KALS1_CENTRAL_NERVOUS_SYSTEM): 1.102
AUC (KELLY_AUTONOMIC_GANGLIA): 1.134
AUC (KMBC2_URINARY_TRACT): 0.9911
AUC (KMRC1_KIDNEY): 1.146
AUC (KMRC3_KIDNEY): 1.058
AUC (KMRC20_KIDNEY): 1.146
AUC (KNS42_CENTRAL_NERVOUS_SYSTEM): 1.1
AUC (KNS60_CENTRAL_NERVOUS_SYSTEM): 1.09
AUC (KNS62_LUNG): 1.118
AUC (KNS81_CENTRAL_NERVOUS_SYSTEM): 1.075
AUC (KP2_PANCREAS): 0.9926
AUC (KP3_PANCREAS): 1.089
AUC (KP4_PANCREAS): 0.9662
AUC (KPL1_BREAST): 1.217
AUC (KU1919_URINARY_TRACT): 0.9667
AUC (KYSE30_OESOPHAGUS): 1.063
AUC (KYSE70_OESOPHAGUS): 1.0546
AUC (KYSE140_OESOPHAGUS): 1.1657
AUC (KYSE150_OESOPHAGUS): 1.101
AUC (KYSE180_OESOPHAGUS): 1.135
AUC (KYSE270_OESOPHAGUS): 1.03
AUC (KYSE410_OESOPHAGUS): 1.091
AUC (KYSE510_OESOPHAGUS): 1.034
AUC (KYSE520_OESOPHAGUS): 1.133
AUC (L33_PANCREAS): 1.426
AUC (LC1SQSF_LUNG): 1.115
AUC (LCLC103H_LUNG): 1.231
AUC (LI7_LIVER): 0.9601
AUC (LK2_LUNG): 1.126
AUC (LMSU_STOMACH): 1.053
AUC (LN18_CENTRAL_NERVOUS_SYSTEM): 1.129
AUC (LN229_CENTRAL_NERVOUS_SYSTEM): 1.034
AUC (LNCAPCLONEFGC_PROSTATE): 0.9173
AUC (LOUNH91_LUNG): 1.097
AUC (LOVO_LARGE_INTESTINE): 1.325
AUC (LOXIMVI_SKIN): 1.09
AUC (LS180_LARGE_INTESTINE): 1.075
AUC (LS411N_LARGE_INTESTINE): 1.3262
AUC (LS513_LARGE_INTESTINE): 1.3335
AUC (LS1034_LARGE_INTESTINE): 1.506
AUC (LU99_LUNG): 0.9959
AUC (LUDLU1_LUNG): 0.9789
AUC (LXF289_LUNG): 1.119
AUC (MALME3M_SKIN): 0.9879
AUC (MCAS_OVARY): 1.03
AUC (MCF7_BREAST): 1.188
AUC (MDAMB175VII_BREAST): 1.1488
AUC (MDAMB231_BREAST): 1.063
AUC (MDAMB435S_SKIN): 1.117
AUC (MDAMB436_BREAST): 1.147
AUC (MDAMB468_BREAST): 1.0692
AUC (MELHO_SKIN): 1.016
AUC (MELJUSO_SKIN): 1.072
AUC (MESSA_SOFT_TISSUE): 0.9027
AUC (MEWO_SKIN): 1.126
AUC (MFE280_ENDOMETRIUM): 1.168
AUC (MFE296_ENDOMETRIUM): 1.031
